From ChEMBL document CHEMBL1201862, “PubChem BioAssay data set” (2004) come the findings set out here.

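Method: 48-hour compound exposure of cells in 96-well plates, five concentrations, linear interpolation of endpoints. GI50 = concentration required for 50% inhibition of growth.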 Activity calls are given as the source filed them. Rule as the data show it: active = GI50 up to about 1.1 µM and inactive = higher.

Some test systems named below: RXF 631; LXFL 529; XF498; KM-20L2; M19-MEL; DLD-1; SNB-78; HOP-18; DMS-273.
Test in all cases: NCI anticancer screen, dose series, 48 h

With `CN1CC[C@]2(C)c3ccc(O)cc3CC3CCCC1C32C` (some centres undefined), the GI50 in the assay with RXF 631, in the assay with LXFL 529, in the assay on XF498, in the assay on KM-20L2, with M19-MEL and in the assay with DLD-1 was > 100 µM (inactive) throughout. Further, the GI50 with SNB-78 and in the assay with HOP-18 was > 100 µM (inactive) each time.

For `CCSC(SCC)c1cc2c(cc1Br)OCO2`, the GI50 was 13.1 µM (inactive) in the assay on RXF 631; 20.4 µM (inactive) with XF498; 11.5 µM (inactive) in the assay on KM-20L2; 19.1 µM (inactive) with M19-MEL; 41 µM (inactive) with DLD-1; 26.5 µM (inactive) with SNB-78. For the same compound, the GI50 in the assay on DMS-273 was 3.7 µM (inactive).

Take `CC(=O)OCC1OC(n2c(-c3ccc(N)cc3)cc(-c3ccco3)c(C#N)c2=O)C(OC(C)=O)C(OC(C)=O)C1OC(C)=O` (centres undefined): the GI50 in the assay on RXF 631 was 44.3 µM (inactive); with LXFL 529 it was 11.1 µM (inactive); in the assay with KM-20L2, > 50 µM (inactive); in the assay with M19-MEL, 18.7 µM (inactive); in the assay on DLD-1 it was > 50 µM (inactive); with SNB-78 it was > 50 µM (inactive). For the same compound, the GI50 is > 50 µM (inactive) in the assay on HOP-18 and 5.26 µM (inactive) in the assay with DMS-273.

`CCCCCCC(=O)C/C(CCC(=O)N(Cc1ccccc1)Cc1ccccc1)=N\NC(N)=O`: the GI50 in the assay with RXF 631, in the assay on LXFL 529, in the assay on XF498, in the assay with KM-20L2, in the assay on M19-MEL and in the assay on SNB-78 was > 100 µM (inactive) each time. The GI50 in the assay with HOP-18 and in the assay on DMS-273 was > 100 µM (inactive) each time.

As for `COC1(OC)CC2C(=O)N(Cc3ccccc3)C1C=C2S(=O)(=O)c1ccccc1` (centres undefined), the GI50 in the assay with LXFL 529 is 15.6 µM (inactive); in the assay on XF498, 17.8 µM (inactive); in the assay with KM-20L2, 18.8 µM (inactive); in the assay with M19-MEL, 16 µM (inactive); in the assay on DLD-1 it was 12.7 µM (inactive); in the assay with SNB-78, 21.8 µM (inactive). In addition, the GI50 in the assay with HOP-18 was 17.1 µM (inactive).

For `COS(=O)c1cc(Cl)cc(Cl)c1OC(=O)CSSCC(=O)Oc1c(Cl)cc(Cl)cc1S(=O)OC` (centres undefined), the GI50 was 20.3 µM (inactive) in the assay with RXF 631; 21 µM (inactive) in the assay on LXFL 529; 27.3 µM (inactive) in the assay with KM-20L2; 20 µM (inactive) in the assay on M19-MEL; 15.3 µM (inactive) with DLD-1; 22.9 µM (inactive) in the assay with SNB-78. Moreover, the GI50 in the assay on HOP-18 was 21.6 µM (inactive); with DMS-273, 12.4 µM (inactive).

Take `CC(C)(C)C(=O)OCC(COC(=O)C(C)(C)C)[N+](=O)[O-]`: the GI50 in the assay with LXFL 529, in the assay with XF498, in the assay on M19-MEL, in the assay with DLD-1 and in the assay with DMS-273 was > 100 µM (inactive) in each case.

Take `N#C/C(=C\c1ccc2[nH]ccc2c1)C(=O)NCCCCNC(=O)/C(C#N)=C/c1ccc2[nH]ccc2c1`: the GI50 in the assay with LXFL 529, in the assay with XF498, in the assay with KM-20L2, in the assay with M19-MEL, in the assay on DLD-1 and in the assay with SNB-78 was > 100 µM (inactive) each time. In addition, the GI50 in the assay on DMS-273 is > 100 µM (inactive).

For `CCC1CN2CCc3cc(OC)c(OC)cc3C2CC1CC1c2cc(OC)c(OC)cc2CCN1C(=O)C1CCCN1C(=O)OCc1ccccc1` (centres undefined), the GI50 was 18.5 µM (inactive) in the assay on RXF 631; 16.3 µM (inactive) in the assay with LXFL 529; 16.6 µM (inactive) with XF498; 16.7 µM (inactive) in the assay on KM-20L2; 15.5 µM (inactive) in the assay on M19-MEL; 15.6 µM (inactive) in the assay with DLD-1. The GI50 in the assay on SNB-78 was 16 µM (inactive); in the assay with HOP-18, 23.1 µM (inactive); with DMS-273, 16.3 µM (inactive).

Take `CCN(CC)C(=O)c1c(Cl)cc(N(CC)CC)oc1=O`: the GI50 in the assay on LXFL 529, with XF498, with KM-20L2, in the assay with M19-MEL, in the assay on DLD-1 and in the assay with SNB-78 was > 100 µM (inactive) throughout. Besides, the GI50 in the assay on HOP-18 and in the assay on DMS-273 was > 100 µM (inactive) each time.

With `CC(=O)Nc1ccccc1-c1nc2ccccc2nc1-c1ccccc1`, the GI50 in the assay on LXFL 529, with XF498, in the assay with KM-20L2, with M19-MEL, in the assay on DLD-1 and with SNB-78 was > 100 µM (inactive) each time. In addition, the GI50 in the assay with HOP-18 was 0.521 µM (active); with DMS-273, > 100 µM (inactive).

`CC(=O)Nc1ccc(-c2nnc(SCC(=O)Nc3ccc([N+](=O)[O-])cc3)o2)cc1`: the GI50 is 7.93 µM (inactive) with LXFL 529; 14.4 µM (inactive) in the assay on KM-20L2; 13.5 µM (inactive) in the assay on M19-MEL; 11.9 µM (inactive) in the assay on DLD-1; 16.1 µM (inactive) in the assay with SNB-78; 16.4 µM (inactive) in the assay on HOP-18. Further, the GI50 in the assay on DMS-273 was 10.6 µM (inactive).

Consider `C[C@]12CC[C@@H]3c4ccccc4CC[C@H]3[C@@H]1CC[C@@H]2O`, for which the GI50 in the assay on LXFL 529 was > 100 µM (inactive); with KM-20L2, 33.8 µM (inactive); in the assay on M19-MEL it was 78 µM (inactive); with DLD-1, 72.6 µM (inactive); in the assay with SNB-78, > 100 µM (inactive); in the assay on DMS-273, 51.1 µM (inactive).

For the compound `N#CC(/C(=N\NC(=O)c1ccncc1)C(=O)Nc1ccc([N+](=O)[O-])cc1[N+](=O)[O-])c1nc(-c2ccc(Br)cc2)cs1` (centres undefined), the GI50 in the assay on RXF 631, in the assay with LXFL 529, with KM-20L2, in the assay on M19-MEL, with DLD-1 and with SNB-78 was > 100 µM (inactive) in each case.

Regarding `COc1ccc(OC)c(NC(=O)C(=O)CC(=O)c2sc(-n3nc(-c4ccccc4)cc3-c3ccccc3)nc2C)c1`, the GI50 in the assay with RXF 631, in the assay with LXFL 529, with KM-20L2, in the assay with M19-MEL, in the assay on DLD-1 and with SNB-78 was > 100 µM (inactive) throughout. Besides, in the assay on DMS-273, the GI50 was > 100 µM (inactive).

With `CCOC(=O)CN1C(=O)c2cc([N+](=O)[O-])cc3cc([N+](=O)[O-])cc(c23)C1=O`, the GI50 is 50.7 µM (inactive) with RXF 631; 12.3 µM (inactive) in the assay on LXFL 529; > 100 µM (inactive) in the assay on XF498; 50.8 µM (inactive) in the assay with KM-20L2; 30.1 µM (inactive) with M19-MEL; 5.86 µM (inactive) in the assay on DLD-1. The GI50 with SNB-78 was 4.2 µM (inactive); in the assay on HOP-18, > 100 µM (inactive); with DMS-273, > 100 µM (inactive).

`N#C/C(=C\c1ccccc1F)C(=O)c1ccccc1`: the GI50 in the assay on LXFL 529, in the assay with XF498, with KM-20L2, in the assay on M19-MEL, in the assay on SNB-78 and in the assay on DMS-273 was > 100 µM (inactive) in each case.
